System: HepG2 (Hepatocarcinoma)
Test: not given
Conditions: MRC-5 vs HepG2

**Q.** For `Cc1cc(C=O)cc(C)c1Oc1cc(Oc2c(C)cc(C=O)cc2C)c2ccncc2n1` [Compound 14a, 2,4-di-(2ˊ,6ˊ-dimethyl-4ˊ-formylphenoxy)−1,7-naphthyridine], which “Selectivity index SI = IC50(normal cell)/IC50(cancer cell line)” value is on record?
**A.** 1.21

**Q.** For `Cc1cc(C=O)cc(C)c1Oc1cc(Oc2c(C)cc(C=O)cc2C)c2cnccc2n1` [Compound 13a, 2,4-di-(2ˊ,6ˊ-dimethyl-4ˊ-formylphenoxy)−1,6-naphthyridine], which “Selectivity index SI = IC50(normal cell)/IC50(cancer cell line)” value is on record?
**A.** 1.12

System: MOLT-3 (Acute lymphoblastic leukemia)
Test: not given
Conditions: MRC-5 vs MOLT-3

**Q.** For `Cc1cc(C=O)cc(C)c1Oc1cc(Oc2c(C)cc(C=O)cc2C)c2ccncc2n1` [Compound 14a, 2,4-di-(2ˊ,6ˊ-dimethyl-4ˊ-formylphenoxy)−1,7-naphthyridine], which “Selectivity index SI = IC50(normal cell)/IC50(cancer cell line)” value is on record?
**A.** 6.80

**Q.** For `Cc1cc(C=O)cc(C)c1Oc1cc(Oc2c(C)cc(C=O)cc2C)c2cnccc2n1` [Compound 13a, 2,4-di-(2ˊ,6ˊ-dimethyl-4ˊ-formylphenoxy)−1,6-naphthyridine], which “Selectivity index SI = IC50(normal cell)/IC50(cancer cell line)” value is on record?
**A.** 6.03

System: HuCCA-1 (Cholangiocarcinoma)
Test: not given
Conditions: MRC-5 vs HuCCA-1

**Q.** With `Cc1cc(C=O)cc(C)c1Oc1cc(Oc2c(C)cc(C=O)cc2C)c2ccncc2n1` [Compound 14a, 2,4-di-(2ˊ,6ˊ-dimethyl-4ˊ-formylphenoxy)−1,7-naphthyridine] as the molecule, how does the “Selectivity index SI = IC50(normal cell)/IC50(cancer cell line)” value read?
**A.** 3.01

**Q.** For `Cc1cc(C=O)cc(C)c1Oc1cc(Oc2c(C)cc(C=O)cc2C)c2cnccc2n1` [Compound 13a, 2,4-di-(2ˊ,6ˊ-dimethyl-4ˊ-formylphenoxy)−1,6-naphthyridine], which “Selectivity index SI = IC50(normal cell)/IC50(cancer cell line)” value is on record?
**A.** 1.61

System: A549 (Lung carcinoma)
Test: not given
Conditions: MRC-5 vs A549

**Q.** Which “Selectivity index SI = IC50(normal cell)/IC50(cancer cell line)” value does the source give for `Cc1cc(C=O)cc(C)c1Oc1cc(Oc2c(C)cc(C=O)cc2C)c2ccncc2n1` [Compound 14a, 2,4-di-(2ˊ,6ˊ-dimethyl-4ˊ-formylphenoxy)−1,7-naphthyridine] here?
**A.** 1.07

**Q.** For `Cc1cc(C=O)cc(C)c1Oc1cc(Oc2c(C)cc(C=O)cc2C)c2cnccc2n1` [Compound 13a, 2,4-di-(2ˊ,6ˊ-dimethyl-4ˊ-formylphenoxy)−1,6-naphthyridine], which “Selectivity index SI = IC50(normal cell)/IC50(cancer cell line)” value is on record?
**A.** 0.64

System: MDA-MB-231 (Hormone-independent breast cancer)
Test: not given
Conditions: MRC-5 vs MDA-MB-231

**Q.** For `Cc1cc(C=O)cc(C)c1Oc1cc(Oc2c(C)cc(C=O)cc2C)c2ccncc2n1` [Compound 14a, 2,4-di-(2ˊ,6ˊ-dimethyl-4ˊ-formylphenoxy)−1,7-naphthyridine], which “Selectivity index SI = IC50(normal cell)/IC50(cancer cell line)” value is on record?
**A.** 1.32

**Q.** For `Cc1cc(C=O)cc(C)c1Oc1cc(Oc2c(C)cc(C=O)cc2C)c2cnccc2n1` [Compound 13a, 2,4-di-(2ˊ,6ˊ-dimethyl-4ˊ-formylphenoxy)−1,6-naphthyridine], which “Selectivity index SI = IC50(normal cell)/IC50(cancer cell line)” value is on record?
**A.** 1.21

System: S102 (Thai liver cancer)
Test: not given
Conditions: MRC-5 vs S102

**Q.** Which “Selectivity index SI = IC50(normal cell)/IC50(cancer cell line)” value does the source give for `Cc1cc(C=O)cc(C)c1Oc1cc(Oc2c(C)cc(C=O)cc2C)c2ccncc2n1` [Compound 14a, 2,4-di-(2ˊ,6ˊ-dimethyl-4ˊ-formylphenoxy)−1,7-naphthyridine] here?
**A.** 0.97

**Q.** For `Cc1cc(C=O)cc(C)c1Oc1cc(Oc2c(C)cc(C=O)cc2C)c2cnccc2n1` [Compound 13a, 2,4-di-(2ˊ,6ˊ-dimethyl-4ˊ-formylphenoxy)−1,6-naphthyridine], which “Selectivity index SI = IC50(normal cell)/IC50(cancer cell line)” value is on record?
**A.** 0.98

System: HeLa (Cervical carcinoma)
Test: not given
Conditions: MRC-5 vs HeLa

**Q.** Which “Selectivity index SI = IC50(normal cell)/IC50(cancer cell line)” value does the source give for `Cc1cc(C=O)cc(C)c1Oc1cc(Oc2c(C)cc(C=O)cc2C)c2ccncc2n1` [Compound 14a, 2,4-di-(2ˊ,6ˊ-dimethyl-4ˊ-formylphenoxy)−1,7-naphthyridine] here?
**A.** 5.35

**Q.** With `Cc1cc(C=O)cc(C)c1Oc1cc(Oc2c(C)cc(C=O)cc2C)c2cnccc2n1` [Compound 13a, 2,4-di-(2ˊ,6ˊ-dimethyl-4ˊ-formylphenoxy)−1,6-naphthyridine] as the molecule, how does the “Selectivity index SI = IC50(normal cell)/IC50(cancer cell line)” value read?
**A.** 2.83

System: T47-D (Hormone-dependent breast cancer)
Test: not given
Conditions: MRC-5 vs T47-D

**Q.** With `Cc1cc(C=O)cc(C)c1Oc1cc(Oc2c(C)cc(C=O)cc2C)c2ccncc2n1` [Compound 14a, 2,4-di-(2ˊ,6ˊ-dimethyl-4ˊ-formylphenoxy)−1,7-naphthyridine] as the molecule, how does the “Selectivity index SI = IC50(normal cell)/IC50(cancer cell line)” value read?
**A.** 2.50

**Q.** For `Cc1cc(C=O)cc(C)c1Oc1cc(Oc2c(C)cc(C=O)cc2C)c2cnccc2n1` [Compound 13a, 2,4-di-(2ˊ,6ˊ-dimethyl-4ˊ-formylphenoxy)−1,6-naphthyridine], which “Selectivity index SI = IC50(normal cell)/IC50(cancer cell line)” value is on record?
**A.** 1.90

System: H69AR (Lung cancer, multidrug resistance)
Test: not given
Conditions: MRC-5 vs H69AR

**Q.** With `Cc1cc(C=O)cc(C)c1Oc1cc(Oc2c(C)cc(C=O)cc2C)c2ccncc2n1` [Compound 14a, 2,4-di-(2ˊ,6ˊ-dimethyl-4ˊ-formylphenoxy)−1,7-naphthyridine] as the molecule, how does the “Selectivity index SI = IC50(normal cell)/IC50(cancer cell line)” value read?
**A.** 1.25

**Q.** For `Cc1cc(C=O)cc(C)c1Oc1cc(Oc2c(C)cc(C=O)cc2C)c2cnccc2n1` [Compound 13a, 2,4-di-(2ˊ,6ˊ-dimethyl-4ˊ-formylphenoxy)−1,6-naphthyridine], which “Selectivity index SI = IC50(normal cell)/IC50(cancer cell line)” value is on record?
**A.** 0.74

System: HL-60 (promyeloblast)
Test: not given
Conditions: MRC-5 vs HL-60

**Q.** For `Cc1cc(C=O)cc(C)c1Oc1cc(Oc2c(C)cc(C=O)cc2C)c2ccncc2n1` [Compound 14a, 2,4-di-(2ˊ,6ˊ-dimethyl-4ˊ-formylphenoxy)−1,7-naphthyridine], which “Selectivity index SI = IC50(normal cell)/IC50(cancer cell line)” value is on record?
**A.** 6.28

**Q.** With `Cc1cc(C=O)cc(C)c1Oc1cc(Oc2c(C)cc(C=O)cc2C)c2cnccc2n1` [Compound 13a, 2,4-di-(2ˊ,6ˊ-dimethyl-4ˊ-formylphenoxy)−1,6-naphthyridine] as the molecule, how does the “Selectivity index SI = IC50(normal cell)/IC50(cancer cell line)” value read?
**A.** 3.98

System: HepG2 (Hepatocarcinoma)
Test: cells
Conditions: Homo sapiens, HepG2, 48 h, read-out: IC50 cytotoxic activity

**Q.** With `Cc1cc(C=O)cc(C)c1Oc1cc(Oc2c(C)cc(C=O)cc2C)c2ccncc2n1` [Compound 14a, 2,4-di-(2ˊ,6ˊ-dimethyl-4ˊ-formylphenoxy)−1,7-naphthyridine] as the molecule, how does the IC50 read?
**A.** 53.9 ± 3.4 µM

**Q.** For `Cc1cc(C=O)cc(C)c1Oc1cc(Oc2c(C)cc(C=O)cc2C)c2cnccc2n1` [Compound 13a, 2,4-di-(2ˊ,6ˊ-dimethyl-4ˊ-formylphenoxy)−1,6-naphthyridine], which IC50 is on record?
**A.** 60.7 ± 1 µM

System: MOLT-3 (Acute lymphoblastic leukemia)
Test: cells
Conditions: Homo sapiens, MOLT-3, 48 h, read-out: IC50 cytotoxic activity

**Q.** Which IC50 does the source give for `Cc1cc(C=O)cc(C)c1Oc1cc(Oc2c(C)cc(C=O)cc2C)c2ccncc2n1` [Compound 14a, 2,4-di-(2ˊ,6ˊ-dimethyl-4ˊ-formylphenoxy)−1,7-naphthyridine] here?
**A.** 9.6 ± 1.1 µM

**Q.** With `Cc1cc(C=O)cc(C)c1Oc1cc(Oc2c(C)cc(C=O)cc2C)c2cnccc2n1` [Compound 13a, 2,4-di-(2ˊ,6ˊ-dimethyl-4ˊ-formylphenoxy)−1,6-naphthyridine] as the molecule, how does the IC50 read?
**A.** 11.3 ± 2.7 µM

System: HuCCA-1 (Cholangiocarcinoma)
Test: cells
Conditions: Homo sapiens, HuCC-A1, 48 h, read-out: IC50 cytotoxic activity

**Q.** With `Cc1cc(C=O)cc(C)c1Oc1cc(Oc2c(C)cc(C=O)cc2C)c2ccncc2n1` [Compound 14a, 2,4-di-(2ˊ,6ˊ-dimethyl-4ˊ-formylphenoxy)−1,7-naphthyridine] as the molecule, how does the IC50 read?
**A.** 21.7 ± 1.6 µM

**Q.** With `Cc1cc(C=O)cc(C)c1Oc1cc(Oc2c(C)cc(C=O)cc2C)c2cnccc2n1` [Compound 13a, 2,4-di-(2ˊ,6ˊ-dimethyl-4ˊ-formylphenoxy)−1,6-naphthyridine] as the molecule, how does the IC50 read?
**A.** 42.2 ± 2.6 µM

System: A549 (Lung carcinoma)
Test: cells
Conditions: Homo sapiens, A549, 48 h, read-out: IC50 cytotoxic activity

**Q.** For `Cc1cc(C=O)cc(C)c1Oc1cc(Oc2c(C)cc(C=O)cc2C)c2ccncc2n1` [Compound 14a, 2,4-di-(2ˊ,6ˊ-dimethyl-4ˊ-formylphenoxy)−1,7-naphthyridine], which IC50 is on record?
**A.** 60.8 ± 1 µM

**Q.** Which IC50 does the source give for `Cc1cc(C=O)cc(C)c1Oc1cc(Oc2c(C)cc(C=O)cc2C)c2cnccc2n1` [Compound 13a, 2,4-di-(2ˊ,6ˊ-dimethyl-4ˊ-formylphenoxy)−1,6-naphthyridine] here?
**A.** 107 ± 2.6 µM

System: MDA-MB-231 (Hormone-independent breast cancer)
Test: cells
Conditions: Homo sapiens, MDA-MB-231, 48 h, read-out: IC50 cytotoxic activity

**Q.** With `Cc1cc(C=O)cc(C)c1Oc1cc(Oc2c(C)cc(C=O)cc2C)c2ccncc2n1` [Compound 14a, 2,4-di-(2ˊ,6ˊ-dimethyl-4ˊ-formylphenoxy)−1,7-naphthyridine] as the molecule, how does the IC50 read?
**A.** 49.4 ± 6.7 µM

**Q.** Which IC50 does the source give for `Cc1cc(C=O)cc(C)c1Oc1cc(Oc2c(C)cc(C=O)cc2C)c2cnccc2n1` [Compound 13a, 2,4-di-(2ˊ,6ˊ-dimethyl-4ˊ-formylphenoxy)−1,6-naphthyridine] here?
**A.** 56.3 ± 3.7 µM

System: S102 (Thai liver cancer)
Test: cells
Conditions: Homo sapiens, 48 h, read-out: IC50 cytotoxic activity

**Q.** Which IC50 does the source give for `Cc1cc(C=O)cc(C)c1Oc1cc(Oc2c(C)cc(C=O)cc2C)c2ccncc2n1` [Compound 14a, 2,4-di-(2ˊ,6ˊ-dimethyl-4ˊ-formylphenoxy)−1,7-naphthyridine] here?
**A.** 67.6 ± 2.2 µM

**Q.** With `Cc1cc(C=O)cc(C)c1Oc1cc(Oc2c(C)cc(C=O)cc2C)c2cnccc2n1` [Compound 13a, 2,4-di-(2ˊ,6ˊ-dimethyl-4ˊ-formylphenoxy)−1,6-naphthyridine] as the molecule, how does the IC50 read?
**A.** 69.8 ± 2.8 µM

System: HeLa (Cervical carcinoma)
Test: cells
Conditions: Homo sapiens, 48 h, read-out: IC50 cytotoxic activity

**Q.** Which IC50 does the source give for `Cc1cc(C=O)cc(C)c1Oc1cc(Oc2c(C)cc(C=O)cc2C)c2ccncc2n1` [Compound 14a, 2,4-di-(2ˊ,6ˊ-dimethyl-4ˊ-formylphenoxy)−1,7-naphthyridine] here?
**A.** 12.2 ± 0.7 µM

**Q.** For `Cc1cc(C=O)cc(C)c1Oc1cc(Oc2c(C)cc(C=O)cc2C)c2cnccc2n1` [Compound 13a, 2,4-di-(2ˊ,6ˊ-dimethyl-4ˊ-formylphenoxy)−1,6-naphthyridine], which IC50 is on record?
**A.** 24.1 ± 0.4 µM

System: T47-D (Hormone-dependent breast cancer)
Test: cells
Conditions: Homo sapiens, T47D, 48 h, read-out: IC50 cytotoxic activity

**Q.** Which IC50 does the source give for `Cc1cc(C=O)cc(C)c1Oc1cc(Oc2c(C)cc(C=O)cc2C)c2ccncc2n1` [Compound 14a, 2,4-di-(2ˊ,6ˊ-dimethyl-4ˊ-formylphenoxy)−1,7-naphthyridine] here?
**A.** 26.1 ± 5 µM

**Q.** Which IC50 does the source give for `Cc1cc(C=O)cc(C)c1Oc1cc(Oc2c(C)cc(C=O)cc2C)c2cnccc2n1` [Compound 13a, 2,4-di-(2ˊ,6ˊ-dimethyl-4ˊ-formylphenoxy)−1,6-naphthyridine] here?
**A.** 35.9 ± 2.1 µM

System: H69AR (Lung cancer, multidrug resistance)
Test: cells
Conditions: Homo sapiens, 48 h, read-out: IC50 cytotoxic activity

**Q.** With `Cc1cc(C=O)cc(C)c1Oc1cc(Oc2c(C)cc(C=O)cc2C)c2ccncc2n1` [Compound 14a, 2,4-di-(2ˊ,6ˊ-dimethyl-4ˊ-formylphenoxy)−1,7-naphthyridine] as the molecule, how does the IC50 read?
**A.** 52.2 ± 1.6 µM

**Q.** Which IC50 does the source give for `Cc1cc(C=O)cc(C)c1Oc1cc(Oc2c(C)cc(C=O)cc2C)c2cnccc2n1` [Compound 13a, 2,4-di-(2ˊ,6ˊ-dimethyl-4ˊ-formylphenoxy)−1,6-naphthyridine] here?
**A.** 91.8 ± 2.9 µM

System: HL-60 (promyeloblast)
Test: cells
Conditions: Homo sapiens, HL-60, 48 h, read-out: IC50 cytotoxic activity

**Q.** With `Cc1cc(C=O)cc(C)c1Oc1cc(Oc2c(C)cc(C=O)cc2C)c2ccncc2n1` [Compound 14a, 2,4-di-(2ˊ,6ˊ-dimethyl-4ˊ-formylphenoxy)−1,7-naphthyridine] as the molecule, how does the IC50 read?
**A.** 10.4 ± 0.8 µM

**Q.** For `Cc1cc(C=O)cc(C)c1Oc1cc(Oc2c(C)cc(C=O)cc2C)c2cnccc2n1` [Compound 13a, 2,4-di-(2ˊ,6ˊ-dimethyl-4ˊ-formylphenoxy)−1,6-naphthyridine], which IC50 is on record?
**A.** 17.1 ± 2.4 µM

System: not listed separately
Test: in vitro
Conditions: human, MRC-5 cells (normal embryonic lung cells)

**Q.** For `Cc1cc(C=O)cc(C)c1Oc1cc(Oc2c(C)cc(C=O)cc2C)c2ccncc2n1` [Compound 14a, 2,4-di-(2ˊ,6ˊ-dimethyl-4ˊ-formylphenoxy)−1,7-naphthyridine], which IC50 at 48 h is on record?
**A.** 65.3 ± 2.1 µM

**Q.** With `Cc1cc(C=O)cc(C)c1Oc1cc(Oc2c(C)cc(C=O)cc2C)c2cnccc2n1` [Compound 13a, 2,4-di-(2ˊ,6ˊ-dimethyl-4ˊ-formylphenoxy)−1,6-naphthyridine] as the molecule, how does the IC50 at 48 h read?
**A.** 68.1 ± 1.1 µM
